# In ChEMBL document CHEMBL2346501, “Synthesis and evaluation of coumarin derivatives as potential dual-action HIV-1 protease and reverse transcriptase inhibitors” (Bioorg Med Chem, 2013):
# Tests used:
# [1] = target: Human immunodeficiency virus type 1 reverse transcriptase (Human immunodeficiency virus 1) (UniProt Q72547); test: Inhibition of HIV1 reverse transcriptase at 50 uM relative to control
# [2] = target: Human immunodeficiency virus type 1 reverse transcriptase (Human immunodeficiency virus 1, UniProt Q72547); test: Inhibition of HIV1 reverse transcriptase
# [3] = target: Protease (Human immunodeficiency virus 1, UniProt Q9YQ12); test: Inhibition of HIV1 protease
# [4] = target: Protease (Human immunodeficiency virus 1) (UniProt Q9YQ12); test: Inhibition of HIV1 protease at 50 uM relative to control
# Chain of Protease (Human immunodeficiency virus 1) (Q9YQ12 as listed by the source): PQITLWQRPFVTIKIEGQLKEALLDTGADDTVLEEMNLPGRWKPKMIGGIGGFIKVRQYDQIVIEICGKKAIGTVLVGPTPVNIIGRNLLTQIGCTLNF
# Chain of Protease (Q9YQ12 whole entry): as the sequence (Q9YQ12 as listed by the source) above
inhibition [1] [%],IC50 [2] [µM],IC50 [3] [µM],inhibition [4] [%],SMILES
97,2.86,27.3,58,CCOc1cccc2cc(CN(Cc3ccccc3)C(=O)CNCc3cn([C@H]4C[C@H](n5cc(C)c(=O)[nH]c5=O)O[C@@H]4CO)nn3)c(=O)oc12
99,3.69,29.5,58,Cc1cn([C@H]2C[C@H](n3cc(CNCC(=O)N(Cc4ccccc4)Cc4cc5cc(Cl)ccc5oc4=O)nn3)[C@@H](CO)O2)c(=O)[nH]c1=O
29,106,21.6,64,COc1cccc2cc(CNCc3cn([C@H]4C[C@H](n5cc(C)c(=O)[nH]c5=O)O[C@@H]4CO)nn3)c(=O)oc12
92,5.59,27.1,61,Cc1cn([C@H]2C[C@H](n3cc(CNCc4cc5ccccc5oc4=O)nn3)[C@@H](CO)O2)c(=O)[nH]c1=O
–,–,–,72,CC(C)c1nc(CN(C)C(=O)N[C@H](C(=O)N[C@@H](Cc2ccccc2)C[C@H](O)[C@H](Cc2ccccc2)NC(=O)OCc2cncs2)C(C)C)cs1
21,114,23.3,62,CCOc1cccc2cc(CNCc3cn([C@H]4C[C@H](n5cc(C)c(=O)[nH]c5=O)O[C@@H]4CO)nn3)c(=O)oc12
94,6.1,28.9,57,Cc1cn([C@H]2C[C@H](n3cc(CNCc4cc5cc(Br)ccc5oc4=O)nn3)[C@@H](CO)O2)c(=O)[nH]c1=O
97,2.88,22.7,60,COc1cccc2cc(CN(Cc3ccccc3)C(=O)CNCc3cn([C@H]4C[C@H](n5cc(C)c(=O)[nH]c5=O)O[C@@H]4CO)nn3)c(=O)oc12
24,102,24.8,56,Cc1cn([C@H]2C[C@H](n3cc(CNCc4cc5cc(Cl)ccc5oc4=O)nn3)[C@@H](CO)O2)c(=O)[nH]c1=O
96,3.4,35.1,52,Cc1cn([C@H]2C[C@H](n3cc(CNCC(=O)N(Cc4ccccc4)Cc4cc5ccccc5oc4=O)nn3)[C@@H](CO)O2)c(=O)[nH]c1=O
94,4.24,32,52,Cc1cn([C@H]2C[C@H](n3cc(CNCC(=O)N(Cc4ccccc4)Cc4cc5cc(Br)ccc5oc4=O)nn3)[C@@H](CO)O2)c(=O)[nH]c1=O
